Results reported in article PMC12736120, “First-in-Human Phase I Clinical Trial of SLC-391, a Novel and Selective AXL Inhibitor, in Patients with Advanced Solid Tumours” (Pharmaceuticals, 2025).

Test: Phase I safety and tolerability (DLTs, adverse events, laboratory, ECG)
Assay type: in vivo
Description: This study employed a standard 3 + 3 dose escalation design with a starting dose of 25 mg QD. […] Dose escalation decisions took into account all available data from evaluable subjects as well as PK and the safety profile of prior dose cohorts. […] There was a minimum 5-day stagger between dosing of the first and second subjects in each dose cohort. Dose escalation decisions were made by a data review committee (DRC) composed of, at minimum, the medical monitor, at least one principal investigator, and a sponsor representative, per the study DRC Plan. Dose escalation could continue until 2 or more subjects in the same dose cohort experienced a dose-limiting toxicity (DLT). DLTs were defined as Grade 3 or 4 adverse drug reactions (ADRs), with grades as defined in the National Cancer Institute Common Toxicity Criteria for Adverse Events (NCI-CTCAE) version 5.0. […] The MTD was defined as the highest dose at which no more than 1 of 6 subjects experienced a DLT during cycle 1 of the study drug. The MTD would have been exceeded if 2 or more subjects in a dose cohort of up to 6 subjects experienced a DLT. Subjects could continue treatment until disease progression, unacceptable toxicity, death, withdrawal of consent, or loss to follow-up.
Before enrolment in the study, all patients received a detailed medical history and physical examination. Clinical laboratory evaluations included clinical chemistry, complete blood count, urinalysis, coagulation factors, and a lipid panel. Other safety assessments included vital signs, physical examination, electrocardiogram, and echocardiogram with multigated acquisition (ECHO/MUGA). Safety assessments were performed on days 1, 8, 15, and 21 of cycle 1, and on day 1 of cycles 2 to 6.

[1] = Grade 3, Overall Study (N = 35)
[2] = Grade All, Overall BID (N = 15)
[3] = Grade All, Overall Study (N = 35)

SMILES: Nc1ncc(-c2cnn(C3CCNCC3)c2)cc1-c1nnc(CC2CC2)o1 [SLC-391, 3-(5-[cyclopropylmethyl]-1,3,4-oxadiazol-2-yl)-5-(1-[piperidin-4-yl]-1H-pyrazol-4-yl)-pyridin-2-amine]
- TEAE: Metabolism and nutrition disorders (Grade 3, Overall BID (N = 15)): 0 n (%)
- TEAE: Musculoskeletal and connective tissue disorders (Grade 3, Overall BID (N = 15)): 1 (6.7) n (%)
- TEAE: Nausea (Grade 3, Overall BID (N = 15)): 0 n (%)
- TEAE: Renal and urinary disorders (Grade 3, Overall BID (N = 15)): 1 (6.7) n (%)
- TEAE: Respiratory, thoracic, and mediastinal disorders (Grade 3, Overall BID (N = 15)): 0 n (%)
- TEAE: Skin and subcutaneous tissue disorders (Grade 3, Overall BID (N = 15)): 1 (6.7) n (%)
- TEAE: Vascular disorders (Grade 3, Overall BID (N = 15)): 1 (6.7) n (%)
- TEAE: Vomiting (Grade 3, Overall BID (N = 15)): 0 n (%)
- Any treatment-emergent adverse event (TEAE) (Grade 3, Overall QD (N = 20)): 6 (30.0) n (%)
- TEAE: Blood and lymphatic system disorders (Grade 3, Overall QD (N = 20)): 1 (5.0) n (%)
- TEAE: Diarrhoea (Grade 3, Overall QD (N = 20)): 0 n (%)
- TEAE: Dyspnoea (Grade 3, Overall QD (N = 20)): 1 (5.0) n (%)
- TEAE: Fatigue (Grade 3, Overall QD (N = 20)): 0 n (%)
- TEAE: Gastrointestinal disorders (Grade 3, Overall QD (N = 20)): 3 (15.0) n (%)
- TEAE: General disorders and administration site conditions (Grade 3, Overall QD (N = 20)): 0 n (%)
- TEAE: Infections and infestations (Grade 3, Overall QD (N = 20)): 1 (5.0) n (%)
- TEAE: Metabolism and nutrition disorders (Grade 3, Overall QD (N = 20)): 2 (10.0) n (%)
- TEAE: Musculoskeletal and connective tissue disorders (Grade 3, Overall QD (N = 20)): 1 (5.0) n (%)
- TEAE: Nausea (Grade 3, Overall QD (N = 20)): 1 (5.0) n (%)
- TEAE: Renal and urinary disorders (Grade 3, Overall QD (N = 20)): 0 n (%)
- TEAE: Respiratory, thoracic, and mediastinal disorders (Grade 3, Overall QD (N = 20)): 2 (10.0) n (%)
- TEAE: Skin and subcutaneous tissue disorders (Grade 3, Overall QD (N = 20)): 0 n (%)
- TEAE: Vascular disorders (Grade 3, Overall QD (N = 20)): 1 (5.0) n (%)
- TEAE: Vomiting (Grade 3, Overall QD (N = 20)): 1 (5.0) n (%)
- Any treatment-emergent adverse event (TEAE) [1]: 12 (34.3) n (%)
- TEAE: Blood and lymphatic system disorders [1]: 2 (5.7) n (%)
- TEAE: Diarrhoea [1]: 1 (2.9) n (%)
- TEAE: Dyspnoea [1]: 1 (2.9) n (%)
- TEAE: Fatigue [1]: 1 (2.9) n (%)
- TEAE: Gastrointestinal disorders [1]: 4 (11.4) n (%)
- TEAE: General disorders and administration site conditions [1]: 1 (2.9) n (%)
- TEAE: Infections and infestations [1]: 2 (5.7) n (%)
- TEAE: Metabolism and nutrition disorders [1]: 2 (5.7) n (%)
- TEAE: Musculoskeletal and connective tissue disorders [1]: 2 (5.7) n (%)
- TEAE: Nausea [1]: 1 (2.9) n (%)
- TEAE: Renal and urinary disorders [1]: 1 (2.9) n (%)
- TEAE: Respiratory, thoracic, and mediastinal disorders [1]: 2 (5.7) n (%)
- TEAE: Skin and subcutaneous tissue disorders [1]: 1 (2.9) n (%)
- TEAE: Vascular disorders [1]: 2 (5.7) n (%)
- TEAE: Vomiting [1]: 1 (2.9) n (%)
- Any treatment-emergent adverse event (TEAE) [2]: 15 (100.0) n (%)
- TEAE: Abdominal distension [2]: 3 (20.0) n (%)
- TEAE: Abdominal pain [2]: 0 n (%)
- TEAE: Back pain [2]: 2 (13.3) n (%)
- TEAE: Blood and lymphatic system disorders [2]: 2 (13.3) n (%)
- TEAE: Chills [2]: 4 (26.7) n (%)
- TEAE: Constipation [2]: 7 (46.7) n (%)
- TEAE: Cough [2]: 3 (20.0) n (%)
- TEAE: Decreased appetite [2]: 5 (33.3) n (%)
- TEAE: Diarrhoea [2]: 9 (60.0) n (%)
- TEAE: Dizziness [2]: 0 n (%)
- TEAE: Dysgeusia [2]: 2 (13.3) n (%)
- TEAE: Dyspnoea [2]: 5 (33.3) n (%)
- TEAE: Fatigue [2]: 10 (66.7) n (%)
- TEAE: Gastrointestinal disorders [2]: 13 (86.7) n (%)
- TEAE: General disorders and administration site conditions [2]: 12 (80.0) n (%)
- TEAE: Haematuria [2]: 4 (26.7) n (%)
- TEAE: Headache [2]: 3 (20.0) n (%)
- TEAE: Infections and infestations [2]: 7 (46.7) n (%)
- TEAE: Investigations [2]: 3 (20.0) n (%)
- TEAE: Metabolism and nutrition disorders [2]: 5 (33.3) n (%)
- TEAE: Musculoskeletal and connective tissue disorders [2]: 6 (40.0) n (%)
- TEAE: Nausea [2]: 11 (73.3) n (%)
- TEAE: Nervous system disorders [2]: 5 (33.3) n (%)
- TEAE: Oedema peripheral [2]: 2 (13.3) n (%)
- TEAE: Psychiatric disorders [2]: 3 (20.0) n (%)
- TEAE: Pyrexia [2]: 2 (13.3) n (%)
- TEAE: Renal and urinary disorders [2]: 5 (33.3) n (%)
- TEAE: Respiratory, thoracic, and mediastinal disorders [2]: 8 (53.3) n (%)
- TEAE: Skin and subcutaneous tissue disorders [2]: 3 (20.0) n (%)
- TEAE: Urinary tract infection [2]: 3 (20.0) n (%)
- TEAE: Vascular disorders [2]: 2 (13.3) n (%)
- TEAE: Vomiting [2]: 6 (40.0) n (%)
- TEAE: Weight decreased [2]: 2 (13.3) n (%)
- Any treatment-emergent adverse event (TEAE) (Grade All, Overall QD (N = 20)): 19 (95.0) n (%)
- TEAE: Abdominal distension (Grade All, Overall QD (N = 20)): 3 (15.0) n (%)
- TEAE: Abdominal pain (Grade All, Overall QD (N = 20)): 5 (25.0) n (%)
- TEAE: Back pain (Grade All, Overall QD (N = 20)): 2 (10.0) n (%)
- TEAE: Blood and lymphatic system disorders (Grade All, Overall QD (N = 20)): 2 (10.0) n (%)
- TEAE: Chills (Grade All, Overall QD (N = 20)): 2 (10.0) n (%)
- TEAE: Constipation (Grade All, Overall QD (N = 20)): 7 (35.0) n (%)
- TEAE: Cough (Grade All, Overall QD (N = 20)): 4 (20.0) n (%)
- TEAE: Decreased appetite (Grade All, Overall QD (N = 20)): 7 (35.0) n (%)
- TEAE: Diarrhoea (Grade All, Overall QD (N = 20)): 11 (55.0) n (%)
- TEAE: Dizziness (Grade All, Overall QD (N = 20)): 4 (20.0) n (%)
- TEAE: Dysgeusia (Grade All, Overall QD (N = 20)): 2 (10.0) n (%)
- TEAE: Dyspnoea (Grade All, Overall QD (N = 20)): 7 (35.0) n (%)
- TEAE: Fatigue (Grade All, Overall QD (N = 20)): 12 (60.0) n (%)
- TEAE: Gastrointestinal disorders (Grade All, Overall QD (N = 20)): 17 (85.0) n (%)
- TEAE: General disorders and administration site conditions (Grade All, Overall QD (N = 20)): 15 (75.0) n (%)
- TEAE: Haematuria (Grade All, Overall QD (N = 20)): 1 (5.0) n (%)
- TEAE: Headache (Grade All, Overall QD (N = 20)): 2 (10.0) n (%)
- TEAE: Infections and infestations (Grade All, Overall QD (N = 20)): 4 (20.0) n (%)
- TEAE: Investigations (Grade All, Overall QD (N = 20)): 5 (25.0) n (%)
- TEAE: Metabolism and nutrition disorders (Grade All, Overall QD (N = 20)): 9 (45.0) n (%)
- TEAE: Musculoskeletal and connective tissue disorders (Grade All, Overall QD (N = 20)): 8 (40.0) n (%)
- TEAE: Nausea (Grade All, Overall QD (N = 20)): 13 (65.0) n (%)
- TEAE: Nervous system disorders (Grade All, Overall QD (N = 20)): 10 (50.0) n (%)
- TEAE: Oedema peripheral (Grade All, Overall QD (N = 20)): 2 (10.0) n (%)
- TEAE: Psychiatric disorders (Grade All, Overall QD (N = 20)): 2 (10.0) n (%)
- TEAE: Pyrexia (Grade All, Overall QD (N = 20)): 3 (15.0) n (%)
- TEAE: Renal and urinary disorders (Grade All, Overall QD (N = 20)): 1 (5.0) n (%)
- TEAE: Respiratory, thoracic, and mediastinal disorders (Grade All, Overall QD (N = 20)): 11 (55.0) n (%)
- TEAE: Skin and subcutaneous tissue disorders (Grade All, Overall QD (N = 20)): 7 (35.0) n (%)
- TEAE: Urinary tract infection (Grade All, Overall QD (N = 20)): 1 (5.0) n (%)
- TEAE: Vascular disorders (Grade All, Overall QD (N = 20)): 3 (15.0) n (%)
- TEAE: Vomiting (Grade All, Overall QD (N = 20)): 11 (55.0) n (%)
- TEAE: Weight decreased (Grade All, Overall QD (N = 20)): 4 (20.0) n (%)
- Any treatment-emergent adverse event (TEAE) [3]: 34 (97.1) n (%)
- TEAE: Abdominal distension [3]: 6 (17.1) n (%)
- TEAE: Abdominal pain [3]: 5 (14.3) n (%)
- TEAE: Back pain [3]: 4 (11.4) n (%)
- TEAE: Blood and lymphatic system disorders [3]: 4 (11.4) n (%)
- TEAE: Chills [3]: 6 (17.1) n (%)
- TEAE: Constipation [3]: 14 (40.0) n (%)
- TEAE: Cough [3]: 7 (20.0) n (%)
- TEAE: Decreased appetite [3]: 12 (34.3) n (%)
- TEAE: Diarrhoea [3]: 20 (57.1) n (%)
- TEAE: Dizziness [3]: 4 (11.4) n (%)
- TEAE: Dysgeusia [3]: 4 (11.4) n (%)
- TEAE: Dyspnoea [3]: 12 (34.3) n (%)
- TEAE: Fatigue [3]: 22 (62.9) n (%)
- TEAE: Gastrointestinal disorders [3]: 30 (85.7) n (%)
- TEAE: General disorders and administration site conditions [3]: 27 (77.1) n (%)
- TEAE: Haematuria [3]: 5 (14.3) n (%)
- TEAE: Headache [3]: 5 (14.3) n (%)
- TEAE: Infections and infestations [3]: 11 (31.4) n (%)
- TEAE: Investigations [3]: 8 (22.9) n (%)
- TEAE: Metabolism and nutrition disorders [3]: 14 (40.0) n (%)
